# Legend:
# Format in all cases: functional
# MDA-MB-468 = experiment: Growth inhibition of human MDA-MB-468 cells after 48 hrs by sulforhodamine B assay; details: MDA-MB-468, 48 h
# T47D = experiment: Growth inhibition of human T47D cells after 48 hrs by sulforhodamine B assay
# [1] = Growth inhibition of human UACC62 cells assessed as cell growth at 10^-6 M after 48 hrs by sulforhodamine B assay; details: UACC-62, 48 h, read-out: Activity
# [2] = Growth inhibition of human LOXIMVI cells assessed as cell growth at 10^-6 M after 48 hrs by sulforhodamine B assay; details: LOX IMVI, read-out: Activity
# COLO 205 = experiment: Growth inhibition of human COLO205 cells assessed as cell growth at 10^-6 M after 48 hrs by sulforhodamine B assay; details: COLO 205, 48 h, read-out: Activity
# [3] = Growth inhibition of human OVCAR8 cells assessed as cell growth at 10^-6 M after 48 hrs by sulforhodamine B assay; details: OVCAR-8, 48 h, read-out: Activity
# Malme-3M = experiment: Growth inhibition of human MALME-3M cells assessed as cell growth at 10^-4 M after 48 hrs by sulforhodamine B assay; details: read-out: Activity
# SW-620 = experiment: Growth inhibition of human SW620 cells assessed as cell growth at 10^-4 M after 48 hrs by sulforhodamine B assay; details: SW-620, 48 h, read-out: Activity
# HT-29 = experiment: Growth inhibition of human HT-29 cells assessed as cell growth at 10^-4 M after 48 hrs by sulforhodamine B assay; details: HT-29, 48 h, read-out: Activity
# RPMI-8226 = experiment: Growth inhibition of human RPMI8226 cells assessed as cell growth at 10^-4 M after 48 hrs by sulforhodamine B assay; details: RPMI-8226, 48 h, read-out: Activity
# KM12 = experiment: Growth inhibition of human KM12 cells assessed as cell growth at 10^-8 M after 48 hrs by sulforhodamine B assay; details: KM12, 48 h
# HCT-116 = experiment: Growth inhibition of human HCT116 cells assessed as cell growth at 10^-8 M after 48 hrs by sulforhodamine B assay; details: HCT-116, 48 h
# NCI-H460 = experiment: Growth inhibition of human NCI-H460 cells assessed as cell growth at 10^-8 M after 48 hrs by sulforhodamine B assay; details: NCI-H460, 48 h
# [4] = Growth inhibition of human MOLT4 cells assessed as cell growth at 10^-8 M after 48 hrs by sulforhodamine B assay; details: MOLT-4, 48 h
# CCRF-CEM [5] = experiment: Growth inhibition of human CCRF-CEM cells assessed as cell growth at 10^-8 M after 48 hrs by sulforhodamine B assay
# MDA-MB-231 = experiment: Growth inhibition of human MDA-MB-231 cells after 48 hrs by sulforhodamine B assay; details: MDA-MB-231, 48 h
# [6] = Growth inhibition of human OVCAR5 cells after 48 hrs by sulforhodamine B assay; details: OVCAR-5, 48 h
# SNB-19 [7] = experiment: Growth inhibition of human SNB19 cells after 48 hrs by sulforhodamine B assay; details: SNB-19, 48 h
# [8] = Growth inhibition of human HOP92 cells after 48 hrs by sulforhodamine B assay; details: HOP-92, 48 h
# CCRF-CEM [9] = experiment: Growth inhibition of human CCRF-CEM cells after 48 hrs by sulforhodamine B assay
# MCF7 [10] = experiment: Growth inhibition of human MCF7 cells assessed as cell growth at 10^-4 M after 48 hrs by sulforhodamine B assay; details: MCF7, 48 h, read-out: Activity
# SN12C = experiment: Growth inhibition of human SN12C cells assessed as cell growth at 10^-4 M after 48 hrs by sulforhodamine B assay; details: read-out: Activity
# IGROV-1 = experiment: Growth inhibition of human IGROV1 cells assessed as cell growth at 10^-7 M after 48 hrs by sulforhodamine B assay; details: IGROV-1, 48 h, read-out: Activity
# [11] = Growth inhibition of human LOXIMVI cells assessed as cell growth at 10^-7 M after 48 hrs by sulforhodamine B assay; details: LOX IMVI, read-out: Activity
# SNB-19 [12] = experiment: Growth inhibition of human SNB19 cells assessed as cell growth at 10^-7 M after 48 hrs by sulforhodamine B assay; details: SNB-19, 48 h, read-out: Activity
# NCI-H522 = experiment: Growth inhibition of human NCI-H522 cells assessed as cell growth at 10^-7 M after 48 hrs by sulforhodamine B assay; details: NCI-H522, 48 h, read-out: Activity
# [13] = Growth inhibition of human HOP92 cells assessed as cell growth at 10^-7 M after 48 hrs by sulforhodamine B assay; details: HOP-92, 48 h, read-out: Activity
# K562 = experiment: Growth inhibition of human K562 cells assessed as cell growth at 10^-7 M after 48 hrs by sulforhodamine B assay; details: K562, 48 h, read-out: Activity
# MCF7 [14] = experiment: Growth inhibition of human MCF7 cells assessed as cell growth at 10^-8 M after 48 hrs by sulforhodamine B assay; details: MCF7, 48 h
# A498 = experiment: Growth inhibition of human A498 cells assessed as cell growth at 10^-8 M after 48 hrs by sulforhodamine B assay; details: A498, 48 h
# 786-0 = experiment: Growth inhibition of human 786-0 cells assessed as cell growth at 10^-8 M after 48 hrs by sulforhodamine B assay; details: 786-0, 48 h
# [15] = Growth inhibition of human OVCAR8 cells assessed as cell growth at 10^-8 M after 48 hrs by sulforhodamine B assay; details: OVCAR-8, 48 h
# [16] = read-out: LC50 (the source's name)
# [17] = read-out: pLC50 (the source's name) (converted)
smiles,measurement,setting,value
Cc1ccc(S(=O)(=O)N2C/C(=C\c3cc(F)cc(F)c3)C(=O)/C(=C/c3cc(F)cc(F)c3)C2)cc1,GI50,MDA-MB-468,349 nM
same,TGI,MDA-MB-468,1710 nM
same,CC50,MDA-MB-468; [16],5770 nM
same,GI50,T47D,1790 nM
same,TGI,T47D,6090 nM
same,CC50,T47D; [16],54300 nM
same,growth at 1 µM,[1],-38%
same,growth at 1 µM,[2],-82%
same,growth at 1 µM,COLO 205,35%
same,growth at 1 µM,[3],15%
same,growth at 100 µM,Malme-3M,-78%
same,growth at 100 µM,SW-620,-74%
same,growth at 100 µM,HT-29,-75%
same,growth at 100 µM,RPMI-8226,-50%
same,GI50,KM12,324 nM
same,LC50,KM12,4070 nM
same,growth at 0.01 µM,KM12; read-out: Activity,106%
same,TGI,KM12; read-out: pTGI (converted),1000 nM
same,GI50,HCT-116,209 nM
same,LC50,HCT-116,1950 nM
same,growth at 0.01 µM,HCT-116; read-out: Activity,107%
same,TGI,HCT-116; read-out: pTGI (converted),537 nM
same,GI50,NCI-H460,832 nM
same,LC50,NCI-H460,9120 nM
same,growth at 0.01 µM,NCI-H460; read-out: Activity,103%
same,TGI,NCI-H460; read-out: pTGI (converted),2880 nM
same,GI50,[4],302 nM
same,growth at 0.01 µM,[4]; read-out: Activity,100%
same,CC50,[4]; [17],> 100000 nM
same,TGI,[4]; read-out: pTGI (converted),2090 nM
same,GI50,CCRF-CEM [5],74.1 nM
same,growth at 0.01 µM,CCRF-CEM [5]; read-out: Activity,95%
same,CC50,CCRF-CEM [5]; [17],> 100000 nM
same,TGI,CCRF-CEM [5]; read-out: pTGI (converted),955 nM
same,GI50,MDA-MB-231,270 nM
same,TGI,MDA-MB-231,784 nM
same,CC50,MDA-MB-231; [16],8480 nM
same,GI50,[6],1020 nM
same,TGI,[6],2750 nM
same,CC50,[6]; [16],7400 nM
same,GI50,SNB-19 [7],220 nM
same,TGI,SNB-19 [7],752 nM
same,CC50,SNB-19 [7]; [16],2820 nM
same,GI50,[8],1110 nM
same,TGI,[8],3300 nM
same,CC50,[8]; [16],9780 nM
same,GI50,CCRF-CEM [9],74.8 nM
same,TGI,CCRF-CEM [9],951 nM
same,CC50,CCRF-CEM [9]; [16],> 100000 nM
same,growth at 100 µM,MCF7 [10],-72%
same,growth at 100 µM,SN12C,-96%
same,growth at 0.1 µM,IGROV-1,106%
same,growth at 0.1 µM,[11],92%
same,growth at 0.1 µM,SNB-19 [12],82%
same,growth at 0.1 µM,NCI-H522,102%
same,growth at 0.1 µM,[13],69%
same,growth at 0.1 µM,K562,44%
same,GI50,MCF7 [14],174 nM
same,LC50,MCF7 [14],6920 nM
same,growth at 0.01 µM,MCF7 [14]; read-out: Activity,89%
same,TGI,MCF7 [14]; read-out: pTGI (converted),1450 nM
same,GI50,A498,1860 nM
same,LC50,A498,8710 nM
same,growth at 0.01 µM,A498; read-out: Activity,96%
same,TGI,A498; read-out: pTGI (converted),4070 nM
same,GI50,786-0,589 nM
same,LC50,786-0,4900 nM
same,growth at 0.01 µM,786-0; read-out: Activity,104%
same,TGI,786-0; read-out: pTGI (converted),1910 nM
same,GI50,[15],302 nM
same,LC50,[15],16200 nM
same,growth at 0.01 µM,[15]; read-out: Activity,95%
same,TGI,[15]; read-out: pTGI (converted),1780 nM

# From ChEMBL document CHEMBL3217615, “Novel 3,5-bis(arylidiene)-4-piperidone based monocarbonyl analogs of curcumin: anticancer activity evaluation and mode of action study” (2014)
